Key:
[1] = test system: EGFR and HER2; experiment: EGFR and HER2 levels in patient-derived breast cancer cells (FIG. 4A); format: cell-based; conditions: patient-derived cells from a TNBC (HCI-001) and a drug resistant, metastatic, HER2+ breast cancer (HCI-012/MLR)
[2] = target: T1, AGR2 (Homo sapiens, UniProt O95994); experiment: Protein thiolate reactivity assay: biotin-tagged DDA binding to AGR2, with competitors; conditions: competition with DDAs
T1 sequence (O95994 21-175): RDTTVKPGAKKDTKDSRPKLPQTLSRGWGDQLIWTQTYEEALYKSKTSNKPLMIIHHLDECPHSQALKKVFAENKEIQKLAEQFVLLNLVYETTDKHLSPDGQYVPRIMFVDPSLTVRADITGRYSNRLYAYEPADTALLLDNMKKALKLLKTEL
Description: To measure DDA and NSC322072 covalent binding to AGR2, purified, recombinant AGR2 is incubated with a biotin-tagged DDA compound for 1 h at 37° C. in the presence or absence of non-biotinylated competitor DDAs or NSC322072. Reaction mixtures are boiled with SDS-PAGE sample buffer supplemented with 100 mM N-ethylmaleimide for ca. 10 minutes to block free thiolate groups remaining after the reaction. Conjugation of AGR2 by DDAs is measured by evaluating AGR2 modification in the modified immunoblot assay in Example 16.
Samples from the biotin-DDA/AGR2 reactions (Example 14) are resolved by non-reducing SDS-PAGE and transferred to nitrocellulose membranes. The membranes are blocked and analyzed by immunoblot with antibodies to AGR2 to verify addition of AGR2 protein to the assays. Anti-AGR2 primary antibody is detected with an Alkaline Phosphatase-conjugated secondary antibody. Separate, replicate membranes are probed with Streptavidin-Alkaline phosphatase. […] Both the AGR2 immunoblots and the Streptavidin-Alkaline phosphatase blots are detected using the standard Alkaline Phosphatase detection compounds, Bromo-chloro-indoyl Phosphate (BCIP)/Nitroblue Tetrazolium (NBT).

[3] = test system: DR4, DR5, HER3 oligomerization and Akt phosphorylation; experiment: Immunoblot analysis in MDA-MB-468 TNBC and BT474 HER2+ lines (FIG. 2B); format: cell-based; conditions: the two compounds similar
[4] = test system: breast cancer cell lines; experiment: Cell viability assays in breast cancer cell lines (FIG. 2C, FIG. 3B); format: cell-based; conditions: increasing concentrations
Description: (§1) MTT cell viability is evaluated using MTT (3-(4,5-dimethylthiazol-2-yl)-2,5-diphenyltetrazolium bromide) assays carried out based on the manufacturer's instructions (kit CGD1, Sigma-Aldrich, St. Louis, MO).

[5] = test system: MDA-MB-468 cells; experiment: MTT cell viability assay; format: cell-based; conditions: for potency of cytotoxicity relative to tcyDTDO: MDA-MB-468 breast cancer cells, compared with tcyDTDO; for effect on cell viability: MDA-MB-468 cells, increasing concentrations (FIG. 7)
Description: as §1

[6] = test system: DR4, DR5, EGFR, GRP78, AGR2, XBP1s in MDA-MB-468 cells; experiment: Immunoblots in MDA-MB-468 cells (FIG. 9, FIG. 10); format: cell-based; conditions: for DR5 expression / ER-stress induced proteins GRP78 and AGR2: MDA-MB-468 cells (FIG. 9); for potency vs tcyDTDO in upregulating and oligomerizing DR4 and DR5 and increasing XBP1s, GRP78, and AGR2 / disulfide bond-dependent oligomerization of DR4, DR5, and EGFR: MDA-MB-468 cells; for potency vs tcyDTDO in upregulating and oligomerizing DR4 and DR5 and increasing XBP1s, GRP78, and AGR2: 2.5 mM (FIG. 10); for disulfide bond-dependent oligomerization of DR4, DR5, and EGFR: at the concentrations that induce cancer cell death (FIG. 9)
[7] = test system: DR4, DR5, and EGFR oligomerization; experiment: Immunoblot with inhibitors of ER acetyltransferases (FIG. 3C); format: cell-based
[8] = test system: pancreatic PDX tumors; experiment: Treatment of mice bearing pancreatic PDX tumors (FIG. 4B); format: in vivo; conditions: separation of cancer cells from stroma and pancreatic cancer cell death
[9] = test system: human breast tumors growing in rodent models; conditions: cited from earlier work

| SMILES | EGFR and HER2 levels [1] | Akt phosphorylation [3] | DR4, DR5, and HER3 oligomerization [3] | potency of cytotoxicity relative to tcyDTDO [5] [fold] | effect on cell viability [5] | DR5 expression [6] | ER-stress induced proteins GRP78 and AGR2 [6] | potency vs tcyDTDO in upregulating and oligomerizing DR4 and DR5 and increasing XBP1s, GRP78, and AGR2 [6] | disulfide bond-dependent oligomerization of DR4, DR5, and EGFR [6] | further results |
| --- | --- | --- | --- | --- | --- | --- | --- | --- | --- | --- |
| CCCCCC(C[N+]1(C)CCOCC1)C(=O)/C=C/c1ccccc1.[Br-] (stereo not drawn) [NSC322072] | decrease EGFR and HER2 levels | decrease Akt phosphorylation | increase DR4, DR5, and HER3 oligomerization |  |  |  |  |  |  | binding site on AGR2 (competition experiments) [2]: bind to the same site on AGR2; effect on cell viability [4]: decrease the viability of three different breast cancer cell lines in a concentration-dependent manner |
| CO[C@H]1C[C@@H]2CS(=O)(=O)SC[C@H]2C[C@@H]1OC (racemic) [DMtcyDTDO, (4aS,6S,7S,8aS)- and (4aR,6R,7R,8aR)-6,7-Dimethoxyoctahydrobenzo [d][1,2]dithiine 2,2-dioxide] | decrease EGFR and HER2 levels | decrease Akt phosphorylation | increase DR4, DR5, and HER3 oligomerization | 2 | decrease the viability of the cancer cell lines in a concentration-dependent manner | upregulate DR5 | increase the ER-stress induced proteins GRP78 and AGR2 | more potent than tcyDTDO | induce disulfide bond-dependent oligomerization of DR4, DR5, and EGFR | potency relative to TcyDTDO ([5]; FIG. 1B legend, test not stated there): twice as potent as TcyDTDO |
| O=S1(=O)CC2CC(F)C(F)CC2CS1 (racemic) [dFtcyDTDO, (4aS,6S,7S,8aS)- and (4aR,6R,7R,8aR)-6,7-Difluorooctahydrobenzo[d][1,2]dithiine 2,2-dioxide] |  |  |  | 2 | decrease the viability of the cancer cell lines in a concentration-dependent manner | upregulate DR5 | increase the ER-stress induced proteins GRP78 and AGR2 | more potent than tcyDTDO | induce disulfide bond-dependent oligomerization of DR4, DR5, and EGFR |  |
| CNC(=O)Nc1ccc2c(c1)CC[C@@]21OC(=O)N(CC(=O)N(Cc2ccc(F)cc2)[C@@H](C)C(F)(F)F)C1=O [A-485] |  |  |  |  |  |  |  |  |  | DR4, DR5, and EGFR oligomerization [7]: without effect |
| O=S1(=O)CC2CCCCC2CS1 (stereo not drawn) [TcyDTDO] |  |  |  |  |  |  |  |  |  | effect on pancreatic PDX tumors (H&E) [8]: causes disintegration of the tumors; in vivo anticancer activity [9]: established in vivo anticancer activity |

Reference: patent US12721833B2, “Small molecule anticancer agents, combinations and uses thereof” (University of Florida Research Foundation, Incorporated, priority 2020, dated 2026)
